Earlier results on one sequence are cited in patent US7612060B2, “Triazoles and methods of use” (Amgen Inc., priority 2004, dated 2009).

Where no end group is shown, it is not given here.

For this series the following is noted: reported.

Consider RPPGFSPFR [BK, Bradykinin], for which the “half-life of BK in plasma” value is on record as “approximately 17 seconds”.
